Test results: ChEMBL document CHEMBL1201862, “PubChem BioAssay data set” (2004)
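Cultured in 96-well plates, cells were exposed to test compound for 48 hours across five concentrations. GI50 marks 50% less growth.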 The source made the active and inactive calls. No stated cut-off is given here; in the data, active = GI50 up to about 1.1 µM and inactive = higher.

Assays:
Assay in all cases: inhibition of tumour cell growth, NCI panel, 48 h
[1] = test system: 786-0
[2] = test system: A549
[3] = test system: ACHN
[4] = test system: CAKI-1
[5] = test system: CCRF-CEM
[6] = test system: COLO 205
[7] = test system: DU-145
[8] = test system: EKVX
[9] = test system: HCC 2998
[10] = test system: HCT-116
[11] = test system: HCT-15
[12] = test system: HL-60
[13] = test system: HOP-62
[14] = test system: HT-29
[15] = test system: IGROV-1
[16] = test system: K562
[17] = test system: KM12
[18] = test system: LOX IMVI
[19] = test system: M14
[20] = test system: MCF7
[21] = test system: MDA-MB-231
[22] = test system: MOLT-4
[23] = test system: Malme-3M
[24] = test system: NCI-H226
[25] = test system: NCI-H23
[26] = test system: NCI-H522
[27] = test system: NCI/ADR-RES
[28] = test system: OVCAR-3
[29] = test system: OVCAR-5
[30] = test system: OVCAR-8
[31] = test system: PC-3
[32] = test system: RPMI-8226
[33] = test system: RXF 393
[34] = test system: SF-268
[35] = test system: SF-295
[36] = test system: SF-539
[37] = test system: SK-MEL-28
[38] = test system: SK-MEL-5
[39] = test system: SK-OV-3
[40] = test system: SN12C
[41] = test system: SNB-19
[42] = test system: SNB-75
[43] = test system: SR
[44] = test system: SW-620
[45] = test system: T47D
[46] = test system: TK-10
[47] = test system: U-251
[48] = test system: UACC-257
[49] = test system: UACC-62
[50] = test system: UO-31
[51] = test system: Hs-578T
[52] = test system: A498
[53] = test system: BT-549
[54] = test system: HOP-92
[55] = test system: MDA-MB-435
[56] = test system: NCI-H460
[57] = test system: OVCAR-4
[58] = test system: SK-MEL-2

Question: With `C=CCN1CN(c2ccccc2)C2(CCN(CCCC3(c4ccc(F)cc4)OCCO3)CC2)C1=O` as the compound, how does the GI50 [1] read?
Answer: 17.7 µM (inactive)

Question: What about the GI50 [2] of the same compound?
Answer: 21.2 µM (inactive)

Question: What about the GI50 [3] of the same compound?
Answer: 18.7 µM (inactive)

Question: What about the GI50 [4] of the same compound?
Answer: 26.7 µM (inactive)

Question: What about the GI50 [5] of the same compound?
Answer: 13.3 µM (inactive)

Question: And the GI50 [6]?
Answer: 15.3 µM (inactive)

Question: What about the GI50 [7] of the same compound?
Answer: 22.4 µM (inactive)

Question: And the GI50 [8]?
Answer: 15.1 µM (inactive)

Question: What about the GI50 [9] of the same compound?
Answer: 19.7 µM (inactive)

Question: And the GI50 [10]?
Answer: 14.8 µM (inactive)

Question: And the GI50 [11]?
Answer: 12.5 µM

Question: What about the GI50 [12] of the same compound?
Answer: 13.7 µM (inactive)

Question: And the GI50 [13]?
Answer: 21.1 µM (inactive)

Question: And the GI50 [14]?
Answer: 5.61 µM (inactive)

Question: And the GI50 [15]?
Answer: 19.9 µM (inactive)

Question: And the GI50 [16]?
Answer: 12.8 µM (inactive)

Question: And the GI50 [17]?
Answer: 15.8 µM (inactive)

Question: What about the GI50 [18] of the same compound?
Answer: 18.5 µM (inactive)

Question: What about the GI50 [19] of the same compound?
Answer: 15.5 µM (inactive)

Question: And the GI50 [20]?
Answer: 14.7 µM (inactive)

Question: And the GI50 [21]?
Answer: 18.3 µM (inactive)

Question: And the GI50 [22]?
Answer: 11 µM (inactive)

Question: What about the GI50 [23] of the same compound?
Answer: 16.5 µM (inactive)

Question: What about the GI50 [24] of the same compound?
Answer: 19.5 µM (inactive)

Question: What about the GI50 [25] of the same compound?
Answer: 13.5 µM (inactive)

Question: What about the GI50 [26] of the same compound?
Answer: 18.9 µM (inactive)

Question: And the GI50 [27]?
Answer: 14.4 µM (inactive)

Question: What about the GI50 [28] of the same compound?
Answer: 14.4 µM (inactive)

Question: What about the GI50 [29] of the same compound?
Answer: 11.3 µM (inactive)

Question: And the GI50 [30]?
Answer: 16.1 µM (inactive)

Question: And the GI50 [31]?
Answer: 16.2 µM (inactive)

Question: What about the GI50 [32] of the same compound?
Answer: 12.4 µM (inactive)

Question: And the GI50 [33]?
Answer: 14.8 µM (inactive)

Question: And the GI50 [34]?
Answer: 18.7 µM (inactive)

Question: And the GI50 [35]?
Answer: 18.5 µM (inactive)

Question: And the GI50 [36]?
Answer: 10.9 µM (inactive)

Question: And the GI50 [37]?
Answer: 16.9 µM (inactive)

Question: What about the GI50 [38] of the same compound?
Answer: 15.1 µM (inactive)

Question: And the GI50 [39]?
Answer: 19.6 µM (inactive)

Question: What about the GI50 [40] of the same compound?
Answer: 17.7 µM (inactive)

Question: And the GI50 [41]?
Answer: 19.5 µM (inactive)

Question: What about the GI50 [42] of the same compound?
Answer: 15.3 µM (inactive)

Question: And the GI50 [43]?
Answer: 12.1 µM (inactive)

Question: What about the GI50 [44] of the same compound?
Answer: 18.7 µM (inactive)

Question: And the GI50 [45]?
Answer: 11.6 µM (inactive)

Question: And the GI50 [46]?
Answer: 16.9 µM (inactive)

Question: And the GI50 [47]?
Answer: 15.3 µM (inactive)

Question: And the GI50 [48]?
Answer: 18.3 µM (inactive)

Question: And the GI50 [49]?
Answer: 18.7 µM (inactive)

Question: What about the GI50 [50] of the same compound?
Answer: 9.93 µM (inactive)

Question: `Oc1c(C(O)c2ccccn2)ccc2ccccc12` (stereo not given) was tested. Which GI50 [2] did it give?
Answer: 61.7 µM (inactive)

Question: And the GI50 [3]?
Answer: 66.4 µM (inactive)

Question: What about the GI50 [5] of the same compound?
Answer: 17.9 µM (inactive)

Question: What about the GI50 [7] of the same compound?
Answer: > 100 µM (inactive)

Question: What about the GI50 [8] of the same compound?
Answer: 53.1 µM (inactive)

Question: What about the GI50 [9] of the same compound?
Answer: 17.1 µM (inactive)

Question: And the GI50 [10]?
Answer: 32.2 µM (inactive)

Question: And the GI50 [11]?
Answer: 22.1 µM

Question: What about the GI50 [12] of the same compound?
Answer: 15.1 µM (inactive)

Question: What about the GI50 [13] of the same compound?
Answer: 81.3 µM (inactive)

Question: And the GI50 [51]?
Answer: 35.1 µM (inactive)

Question: And the GI50 [16]?
Answer: 26.4 µM (inactive)

Question: What about the GI50 [17] of the same compound?
Answer: 54.1 µM (inactive)

Question: What about the GI50 [18] of the same compound?
Answer: > 100 µM (inactive)

Question: And the GI50 [19]?
Answer: > 100 µM (inactive)

Question: What about the GI50 [22] of the same compound?
Answer: 19.6 µM (inactive)

Question: What about the GI50 [24] of the same compound?
Answer: 85.3 µM (inactive)

Question: And the GI50 [25]?
Answer: 69.8 µM (inactive)

Question: What about the GI50 [26] of the same compound?
Answer: 17.4 µM (inactive)

Question: And the GI50 [27]?
Answer: 42.1 µM (inactive)

Question: And the GI50 [28]?
Answer: 56.8 µM (inactive)

Question: What about the GI50 [30] of the same compound?
Answer: 74.6 µM (inactive)

Question: And the GI50 [31]?
Answer: 26.9 µM (inactive)

Question: And the GI50 [33]?
Answer: 32.9 µM (inactive)

Question: What about the GI50 [34] of the same compound?
Answer: 72.4 µM (inactive)

Question: And the GI50 [35]?
Answer: > 100 µM (inactive)

Question: And the GI50 [36]?
Answer: 87.3 µM (inactive)

Question: What about the GI50 [38] of the same compound?
Answer: 22.7 µM (inactive)

Question: And the GI50 [40]?
Answer: 48.1 µM (inactive)

Question: And the GI50 [41]?
Answer: > 100 µM (inactive)

Question: And the GI50 [42]?
Answer: 24.4 µM (inactive)

Question: What about the GI50 [45] of the same compound?
Answer: > 100 µM (inactive)

Question: What about the GI50 [47] of the same compound?
Answer: 52 µM (inactive)

Question: And the GI50 [48]?
Answer: > 100 µM (inactive)

Question: What about the GI50 [49] of the same compound?
Answer: 14.4 µM (inactive)

Question: What about the GI50 [50] of the same compound?
Answer: 29.6 µM (inactive)

Question: Which GI50 [1] does the source give for `S=c1sc2ccccc2n1CN1CCN(Cc2ccccc2)CC1` here?
Answer: > 100 µM (inactive)

Question: And the GI50 [52]?
Answer: > 100 µM (inactive)

Question: And the GI50 [2]?
Answer: > 100 µM (inactive)

Question: And the GI50 [3]?
Answer: > 100 µM (inactive)

Question: And the GI50 [53]?
Answer: > 100 µM (inactive)

Question: What about the GI50 [4] of the same compound?
Answer: > 100 µM (inactive)

Question: What about the GI50 [5] of the same compound?
Answer: > 100 µM (inactive)

Question: And the GI50 [6]?
Answer: > 100 µM (inactive)

Question: And the GI50 [7]?
Answer: > 100 µM (inactive)

Question: What about the GI50 [8] of the same compound?
Answer: > 100 µM (inactive)

Question: What about the GI50 [9] of the same compound?
Answer: > 100 µM (inactive)

Question: What about the GI50 [10] of the same compound?
Answer: > 100 µM (inactive)

Question: And the GI50 [11]?
Answer: > 100 µM

Question: What about the GI50 [12] of the same compound?
Answer: > 100 µM (inactive)

Question: What about the GI50 [13] of the same compound?
Answer: > 100 µM (inactive)

Question: And the GI50 [54]?
Answer: > 100 µM (inactive)

Question: What about the GI50 [14] of the same compound?
Answer: > 100 µM (inactive)

Question: What about the GI50 [51] of the same compound?
Answer: > 100 µM (inactive)

Question: What about the GI50 [15] of the same compound?
Answer: > 100 µM (inactive)

Question: What about the GI50 [16] of the same compound?
Answer: > 100 µM (inactive)

Question: What about the GI50 [17] of the same compound?
Answer: > 100 µM (inactive)

Question: And the GI50 [18]?
Answer: > 100 µM (inactive)

Question: And the GI50 [19]?
Answer: > 100 µM (inactive)

Question: And the GI50 [20]?
Answer: > 100 µM (inactive)

Question: What about the GI50 [55] of the same compound?
Answer: > 100 µM (inactive)

Question: What about the GI50 [22] of the same compound?
Answer: > 100 µM (inactive)

Question: What about the GI50 [24] of the same compound?
Answer: > 100 µM (inactive)

Question: What about the GI50 [25] of the same compound?
Answer: > 100 µM (inactive)

Question: And the GI50 [56]?
Answer: > 100 µM (inactive)

Question: And the GI50 [26]?
Answer: > 100 µM (inactive)

Question: And the GI50 [27]?
Answer: > 100 µM (inactive)

Question: What about the GI50 [28] of the same compound?
Answer: > 100 µM (inactive)

Question: What about the GI50 [57] of the same compound?
Answer: > 100 µM (inactive)

Question: And the GI50 [29]?
Answer: > 100 µM (inactive)

Question: And the GI50 [30]?
Answer: > 100 µM (inactive)

Question: And the GI50 [31]?
Answer: > 100 µM (inactive)

Question: What about the GI50 [32] of the same compound?
Answer: > 100 µM (inactive)

Question: And the GI50 [33]?
Answer: > 100 µM (inactive)

Question: And the GI50 [34]?
Answer: > 100 µM (inactive)

Question: And the GI50 [35]?
Answer: > 100 µM (inactive)

Question: And the GI50 [36]?
Answer: > 100 µM (inactive)

Question: What about the GI50 [58] of the same compound?
Answer: > 100 µM (inactive)

Question: And the GI50 [38]?
Answer: > 100 µM (inactive)

Question: And the GI50 [39]?
Answer: > 100 µM (inactive)

Question: And the GI50 [40]?
Answer: > 100 µM (inactive)

Question: And the GI50 [41]?
Answer: > 100 µM (inactive)

Question: What about the GI50 [42] of the same compound?
Answer: > 100 µM (inactive)

Question: And the GI50 [44]?
Answer: > 100 µM (inactive)

Question: What about the GI50 [45] of the same compound?
Answer: > 100 µM (inactive)

Question: And the GI50 [46]?
Answer: > 10 µM (inactive)

Question: What about the GI50 [47] of the same compound?
Answer: > 100 µM (inactive)

Question: What about the GI50 [48] of the same compound?
Answer: > 100 µM (inactive)

Question: And the GI50 [49]?
Answer: > 100 µM (inactive)

Question: What about the GI50 [50] of the same compound?
Answer: > 100 µM (inactive)
